Laboratory results published in PubChem BioAssay (NCI).
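Compound exposure: 48 hours, 5 concentrations, 96-well plates. The concentration for full growth arrest is given as TGI.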

Columns and labels:
Experiment in all cases: DTP human tumour cell line panel, 48 h
SF-268 CNS = test system: SF-268 CNS
OVCAR-5 ovarian = test system: OVCAR-5 ovarian
SN12C renal = test system: SN12C renal
MOLT-4 leukemia = test system: MOLT-4 leukemia
HS 578T breast = test system: HS 578T breast
NCI/ADR-RES ovarian = test system: NCI/ADR-RES ovarian
MDA-MB-231 breast = test system: MDA-MB-231 breast
NCI-H522 lung = test system: NCI-H522 lung
OVCAR-3 ovarian = test system: OVCAR-3 ovarian
NCI-H460 lung = test system: NCI-H460 lung
LOX IMVI melanoma = test system: LOX IMVI melanoma
HOP-62 NSCLC = test system: HOP-62 NSCLC
SK-MEL-28 melanoma = test system: SK-MEL-28 melanoma
OVCAR-4 ovarian = test system: OVCAR-4 ovarian
KM12 colon = test system: KM12 colon
PC-3 prostate = test system: PC-3 prostate
HL-60(TB) leukemia = test system: HL-60(TB) leukemia
OVCAR-8 ovarian = test system: OVCAR-8 ovarian
K-562 leukemia = test system: K-562 leukemia
EKVX NSCLC = test system: EKVX NSCLC

| Compound | TGI (SF-268 CNS) | TGI (OVCAR-5 ovarian) | TGI (SN12C renal) | TGI (MOLT-4 leukemia) | TGI (HS 578T breast) | TGI (NCI/ADR-RES ovarian) | TGI (MDA-MB-231 breast) | TGI (NCI-H522 lung) | TGI (OVCAR-3 ovarian) | TGI (NCI-H460 lung) | TGI (LOX IMVI melanoma) | TGI (HOP-62 NSCLC) | TGI (SK-MEL-28 melanoma) | TGI (OVCAR-4 ovarian) | TGI (KM12 colon) | TGI (PC-3 prostate) | TGI (HL-60(TB) leukemia) | TGI (OVCAR-8 ovarian) | TGI (K-562 leukemia) | TGI (EKVX NSCLC) |
| --- | --- | --- | --- | --- | --- | --- | --- | --- | --- | --- | --- | --- | --- | --- | --- | --- | --- | --- | --- | --- |
| CCOC(=O)NC(C(F)(F)F)(C(F)(F)F)P(=O)(OCC)OCC | > 100 µM | > 100 µM | > 100 µM | 97.9 µM | > 100 µM | > 100 µM | > 100 µM | 36.9 µM | > 100 µM | > 100 µM | > 100 µM | > 100 µM | > 100 µM | > 100 µM | > 100 µM | > 100 µM | > 100 µM | > 100 µM | > 100 µM |  |
| COC(=O)N1C2C(C[C@@]1(C)C(=O)OC)c1ccccc1N2S(=O)(=O)c1ccccc1 (stereo partly drawn) | > 100 µM | > 100 µM |  | > 100 µM | > 100 µM | > 100 µM | > 100 µM | > 100 µM | > 100 µM | > 100 µM | > 100 µM |  | > 100 µM | > 100 µM | > 100 µM | > 100 µM | > 100 µM | > 100 µM | > 100 µM | > 100 µM |
| Cc1ccc(C(CCO)CCO)nc1 | > 100 µM | > 100 µM | > 100 µM | > 100 µM | > 100 µM | > 100 µM | > 100 µM | > 100 µM | > 100 µM | > 100 µM | > 100 µM | > 100 µM | > 100 µM | > 100 µM | > 100 µM | > 100 µM | > 100 µM | > 100 µM |  | > 100 µM |
| COc1c(N2CCCCC2)c2c(=O)c3ccccc3oc2c2c3ccccc3n(C)c12 | > 100 µM | > 100 µM | > 100 µM | > 100 µM | > 100 µM | > 100 µM | > 100 µM |  | > 100 µM | > 100 µM | > 100 µM | > 100 µM | > 100 µM | > 100 µM | > 100 µM | > 100 µM | > 100 µM | > 100 µM | > 100 µM | > 100 µM |
| CC(NNC(=S)N1CCCC1)c1cccnn1 (stereo not drawn) |  | 8.71 µM | > 100 µM | > 100 µM | > 100 µM | > 62.9 µM | > 100 µM |  | > 100 µM | > 81.5 µM | > 100 µM | > 31 µM | > 31.6 µM | > 76.9 µM | > 100 µM | > 100 µM | > 100 µM |  | > 100 µM |  |
| COc1cc(C2SCC(=O)N2c2ccc(Cl)cc2)cc(OC)c1OC (stereo not drawn) | > 100 µM |  | > 100 µM | 30.7 µM | > 100 µM | > 100 µM | > 100 µM | > 100 µM | > 100 µM | > 100 µM | > 100 µM | > 100 µM | > 100 µM | > 100 µM | > 82.8 µM | > 100 µM | 29.2 µM | > 100 µM | > 52.9 µM | > 60.1 µM |
| CC(=O)c1ccc(Nc2nc3ccccc3c3occc23)cc1 | 75.7 µM | > 100 µM | > 100 µM | 11.9 µM | 54.1 µM | 58 µM | > 100 µM | 9.12 µM | 71.2 µM | 23 µM | 61.7 µM | 36.2 µM | 15.9 µM | 8.78 µM | 44.3 µM | > 100 µM | 2.4 µM | > 100 µM |  | > 100 µM |
| O=C1NC(NNc2ccccc2)=N/C1=C\c1ccco1 | 75.2 µM | > 100 µM | 49.9 µM | > 100 µM | 74.5 µM | > 100 µM | 54.7 µM | 27.8 µM | 38.1 µM | 55 µM |  | > 100 µM | 68.5 µM | 32.7 µM | 54.6 µM | 71.5 µM | 90.3 µM | 32.7 µM |  | 46.7 µM |
| O=C1Nc2n[nH]c(=S)n2NC12c1ccccc1-c1ccccc12 | > 100 µM | > 100 µM | > 100 µM |  | > 100 µM | > 100 µM | > 100 µM | > 100 µM | > 100 µM | > 100 µM | > 100 µM | > 100 µM | > 100 µM | 39.1 µM |  | > 100 µM | > 100 µM | > 100 µM |  | > 100 µM |
| Cc1c2c(n3c(nc4ccccc43)c1C#N)NCC2 | > 10 µM | > 10 µM | > 10 µM | > 10 µM | > 10 µM | > 10 µM | > 10 µM |  | > 10 µM | > 10 µM | > 10 µM | > 10 µM | > 10 µM | > 10 µM | > 10 µM | > 10 µM | > 10 µM | > 10 µM | > 10 µM | > 10 µM |
